Data: ChEMBL document CHEMBL3044909, “Design, synthesis, and evaluation of an activity-based probe for cellular imaging of monoamine oxidases” (Med Chem Res, 2012)

Experiments:
[1] = molecular target: T1, Amine oxidase [flavin-containing] B (Homo sapiens, UniProt P27338); assay: Binding affinity to MAOB (unknown origin) using 7-(3-amino-propoxy)-coumarin as substrate after 3 hr by spectrofluorometric analysis
T1 sequence (P27338 whole entry): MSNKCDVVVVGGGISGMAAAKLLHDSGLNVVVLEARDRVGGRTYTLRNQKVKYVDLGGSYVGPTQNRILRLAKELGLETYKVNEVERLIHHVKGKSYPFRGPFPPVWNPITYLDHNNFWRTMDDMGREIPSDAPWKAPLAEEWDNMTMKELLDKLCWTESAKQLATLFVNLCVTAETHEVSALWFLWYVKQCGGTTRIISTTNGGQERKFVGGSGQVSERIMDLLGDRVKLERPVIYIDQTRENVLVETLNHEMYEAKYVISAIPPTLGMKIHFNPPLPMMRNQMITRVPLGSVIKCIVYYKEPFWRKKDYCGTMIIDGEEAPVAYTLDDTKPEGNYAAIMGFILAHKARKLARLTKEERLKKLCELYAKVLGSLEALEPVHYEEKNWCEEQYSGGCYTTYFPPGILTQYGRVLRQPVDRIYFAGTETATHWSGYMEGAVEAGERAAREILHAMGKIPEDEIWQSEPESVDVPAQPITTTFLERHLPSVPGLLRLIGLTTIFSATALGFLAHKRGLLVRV

[2] = molecular target: T2, Amine oxidase [flavin-containing] A (Homo sapiens, UniProt P21397); assay: Binding affinity to MAOA (unknown origin) using 7-(3-amino-propoxy)-coumarin as substrate after 3 hr by spectrofluorometric analysis
T2 sequence (P21397 whole entry): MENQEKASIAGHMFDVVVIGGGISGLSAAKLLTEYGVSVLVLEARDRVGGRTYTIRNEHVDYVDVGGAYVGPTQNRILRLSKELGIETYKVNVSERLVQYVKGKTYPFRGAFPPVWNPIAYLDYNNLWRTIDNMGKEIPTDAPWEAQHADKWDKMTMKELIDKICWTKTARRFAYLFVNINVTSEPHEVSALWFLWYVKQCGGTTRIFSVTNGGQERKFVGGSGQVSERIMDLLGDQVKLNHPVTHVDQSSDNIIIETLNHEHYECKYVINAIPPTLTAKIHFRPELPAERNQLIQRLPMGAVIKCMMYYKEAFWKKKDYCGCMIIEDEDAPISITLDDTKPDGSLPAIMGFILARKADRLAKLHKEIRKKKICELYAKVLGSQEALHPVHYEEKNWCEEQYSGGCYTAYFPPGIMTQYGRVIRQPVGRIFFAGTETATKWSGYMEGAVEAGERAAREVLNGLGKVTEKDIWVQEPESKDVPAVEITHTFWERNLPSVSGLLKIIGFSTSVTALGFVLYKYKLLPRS

Row | Structure (SMILES) | IC50 [1] | IC50 [2]
1 | NCCCCCCNCC(N)=O | 79.5 µM | 8.6 µM
2 | CC(C)(C)OC(=O)NCCCCCCNCC(N)=O | 54.3 µM | 5.7 µM
